Laboratory results as given in PubChem BioAssay AID248 (DTP/NCI, 2004).
Toxic doses and inconclusive results are not listed. No stated cut-off is given here; in the data, active means T/C of 150% or more; inactive means T/C below 125%.

Test system: L1210 leukemia ip in BDF1 mice, survival T/C
Test: NCI In Vivo Anticancer Drug Screen. Data for tumor model L1210 Leukemia (intraperitoneal) in B6D2F1 (BDF1) mice
Settings: endpoint: mean survival time, higher = longer survival
In short: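 Tumor was transplanted into mice, which were then dosed with test compound or vehicle alone. Survival was recorded for each group, and the treated figure was expressed relative to the control figure.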

[1] = dose: 25.0 mg/kg/injection, schedule: Q04DX003 (ip), vehicle: saline with Tween-80
[2] = dose: 50.0 mg/kg/injection, schedule: Q04DX003 (ip), vehicle: Klucel (hydroxypropylcellulose) (HPC)
[3] = dose: 50.0 mg/kg/injection, schedule: Q04DX003 (ip), vehicle: saline with Tween-80
[4] = dose: 100.0 mg/kg/injection, schedule: Q01DX001 (ip), vehicle: carboxymethylcellulose (CMC)
[5] = dose: 200.0 mg/kg/injection, schedule: Q01DX001 (ip), vehicle: carboxymethylcellulose (CMC)
[6] = dose: 400.0 mg/kg/injection, schedule: Q01DX001 (ip), vehicle: carboxymethylcellulose (CMC)
[7] = dose: 100.0 mg/kg/injection, schedule: Q04DX003 (ip), vehicle: Klucel (hydroxypropylcellulose) (HPC)
[8] = dose: 200.0 mg/kg/injection, schedule: Q04DX003 (ip), vehicle: Klucel (hydroxypropylcellulose) (HPC)
[9] = dose: 100.0 mg/kg/injection, schedule: Q04DX003 (ip), vehicle: saline with Tween-80
[10] = dose: 200.0 mg/kg/injection, schedule: Q04DX003 (ip), vehicle: saline with Tween-80
[11] = dose: 400.0 mg/kg/injection, schedule: Q04DX003 (ip), vehicle: saline with Tween-80
[12] = dose: 100.0 mg/kg/injection, schedule: Q04DX003 (ip), vehicle: saline
[13] = dose: 400.0 mg/kg/injection, schedule: Q04DX003 (ip), vehicle: Klucel (hydroxypropylcellulose) (HPC)

Measured: T/C

CC1(C)N=C(N)N=C(N)N1c1ccc(CCc2ccccc2)cc1
inactive: dose: 12.5 mg/kg/injection, schedule: Q01DX009 (ip), vehicle: Klucel (hydroxypropylcellulose) (HPC) 97 % of control | dose: 12.5 mg/kg/injection, schedule: Q04DX003 (ip), vehicle: Klucel (hydroxypropylcellulose) (HPC) 98 % of control | dose: 12.5 mg/kg/injection, schedule: Q04DX003 (ip), vehicle: saline with Tween-80 101 % of control | dose: 25.0 mg/kg/injection, schedule: Q01DX009 (ip), vehicle: Klucel (hydroxypropylcellulose) (HPC) 93 % of control | dose: 25.0 mg/kg/injection, schedule: Q04DX003 (ip), vehicle: Klucel (hydroxypropylcellulose) (HPC) 104 % of control | [1] 102 % of control | [2] 93 % of control | [3] 104 % of control

CN1CCCCCCCC(=O)C(OC(=O)c2ccc([N+](=O)[O-])cc2)CCCCCCC1 (stereo not given)
inactive: dose: 50.0 mg/kg/injection, schedule: Q01DX001 (ip), vehicle: carboxymethylcellulose (CMC) 95 % of control | [4] 97 % of control | [5] 95 % of control | [6] 95 % of control

CCOC(=O)C(=Cc1ccc(C=C(C(=O)OCC)C(=O)OCC)cc1)C(=O)OCC
inactive: [2] 100 % of control | [7] 100 % of control | [8] 94 % of control

CCCSCCCCSCCC
inactive: [1] 115 % of control | [3] 104 % of control | dose: 100.0 mg/kg/injection, schedule: Q01DX009 (ip), vehicle: saline with Tween-80 100 % of control | [9] 102 % of control | dose: 200.0 mg/kg/injection, schedule: Q01DX009 (ip), vehicle: saline with Tween-80 109 % of control | [10] 92 % of control | dose: 400.0 mg/kg/injection, schedule: Q01DX009 (ip), vehicle: saline with Tween-80 91 % of control | [11] 95 % of control

CC(C)(C)c1ccc2oc(-c3ccc(-c4nc5cc(C(C)(C)C)ccc5o4)s3)nc2c1
inactive: dose: 100.0 mg/kg/injection, schedule: Q04DX003 (ip), vehicle: gum acacia 92 % of control | dose: 200.0 mg/kg/injection, schedule: Q04DX003 (ip), vehicle: gum acacia 99 % of control

[Cl][Hg][c]1ccc2ccccc2c1
inactive: dose: 6.25 mg/kg/injection, schedule: Q01DX005 (ip), vehicle: saline with Tween-80 104 % of control | dose: 12.5 mg/kg/injection, schedule: Q01DX005 (ip), vehicle: saline with Tween-80 97 % of control | dose: 12.5 mg/kg/injection, schedule: Q01DX009 (ip), vehicle: saline with Tween-80 92 % of control | dose: 25.0 mg/kg/injection, schedule: Q01DX005 (ip), vehicle: saline with Tween-80 104 % of control

NC(CC(=O)O)c1cccs1 (stereo not given)
inactive: dose: 100.0 mg/kg/injection, schedule: Q04DX002 (ip), vehicle: saline 95 % of control | dose: 200.0 mg/kg/injection, schedule: Q04DX002 (ip), vehicle: saline 95 % of control | dose: 400.0 mg/kg/injection, schedule: Q04DX002 (ip), vehicle: saline 102 % of control

Cc1cc(N)ccc1/C=C/C(=O)O
inactive: [12] 97 % of control | dose: 200.0 mg/kg/injection, schedule: Q04DX003 (ip), vehicle: saline 98 % of control | dose: 400.0 mg/kg/injection, schedule: Q04DX003 (ip), vehicle: saline 93 % of control

Clc1ccc2c(c1)/C(=C\c1ccnc3ccccc13)c1cc(Cl)cc(Cl)c1-2
inactive: dose: 100.0 mg/kg/injection, schedule: Q01DX001 (ip), vehicle: Klucel (hydroxypropylcellulose) (HPC) 94 % of control | dose: 100.0 mg/kg/injection, schedule: Q01DX009 (ip), vehicle: Klucel (hydroxypropylcellulose) (HPC) 93 % of control | [7] 93 % of control | dose: 200.0 mg/kg/injection, schedule: Q01DX001 (ip), vehicle: Klucel (hydroxypropylcellulose) (HPC) 92 % of control | dose: 200.0 mg/kg/injection, schedule: Q01DX009 (ip), vehicle: Klucel (hydroxypropylcellulose) (HPC) 98 % of control | [8] 88 % of control | dose: 400.0 mg/kg/injection, schedule: Q01DX001 (ip), vehicle: Klucel (hydroxypropylcellulose) (HPC) 94 % of control | [13] 88 % of control

O=C1c2cccc(NCCO)c2C(=O)c2c(NCCO)cccc21
inactive: [7] 94 % of control | [8] 102 % of control | [13] 94 % of control

O=[N+]([O-])c1ccc(S)cc1
inactive: dose: 100.0 mg/kg/injection, schedule: Q01DX009 (ip), vehicle: saline sonified 103 % of control | [7] 89 % of control | dose: 200.0 mg/kg/injection, schedule: Q01DX009 (ip), vehicle: saline sonified 91 % of control | dose: 400.0 mg/kg/injection, schedule: Q01DX009 (ip), vehicle: saline sonified 92 % of control | [13] 90 % of control

CN(C)CCNC1c2ccccc2CCc2ccccc21
inactive: dose: 18.75 mg/kg/injection, schedule: Q04DX003 (ip), vehicle: saline 98 % of control | dose: 37.5 mg/kg/injection, schedule: Q04DX003 (ip), vehicle: saline 104 % of control | dose: 75.0 mg/kg/injection, schedule: Q04DX003 (ip), vehicle: saline 101 % of control

CCOC(=O)NC(NC(=O)OCC)c1ccc(Cl)c(Cl)c1
inactive: [4] 98 % of control | [5] 98 % of control | [6] 93 % of control

CCOC(=O)c1ccc(NC(=O)CS)cc1
inactive: [9] 89 % of control | [10] 94 % of control | [11] 97 % of control

CC(C)N(Cl)S(C)(=O)=O
inactive: [12] 89 % of control

CCOC(=O)c1ccc(N=NC2C(=O)N(c3ccccc3)N=C2C)cc1 (stereo not given)
inactive: dose: 100.0 mg/kg/injection, schedule: Q01DX001 (ip), vehicle: saline 96 % of control | dose: 200.0 mg/kg/injection, schedule: Q01DX001 (ip), vehicle: saline 96 % of control

CCC(=O)OC1CC2(C)C(=CC1=O)CCC1C2CCC2(C)C(OC(=O)CC)CCC12 (stereo not given)
inactive: dose: 100.0 mg/kg/injection, schedule: Q01DX009 (ip), vehicle: saline 97 % of control | dose: 200.0 mg/kg/injection, schedule: Q01DX009 (ip), vehicle: saline 96 % of control | dose: 400.0 mg/kg/injection, schedule: Q01DX009 (ip), vehicle: saline 96 % of control

CCCCCCCCCCCCCS
inactive: dose: 40.0 mg/kg/injection, schedule: Q01DX Z (ip), vehicle: saline 108 % of control | dose: 50.0 mg/kg/injection, schedule: Q04DX003 (ip), vehicle: carboxymethylcellulose (CMC) 100 % of control | dose: 60.0 mg/kg/injection, schedule: Q01DX Z (ip), vehicle: saline 120 % of control | dose: 90.0 mg/kg/injection, schedule: Q01DX Z (ip), vehicle: saline 111 % of control | [4] 110 % of control | dose: 100.0 mg/kg/injection, schedule: Q04DX003 (ip), vehicle: carboxymethylcellulose (CMC) 105 % of control | dose: 135.0 mg/kg/injection, schedule: Q01DX Z (ip), vehicle: saline 120 % of control | [5] 101 % of control | dose: 200.0 mg/kg/injection, schedule: Q01DX Z (ip), vehicle: saline 108 % of control | dose: 200.0 mg/kg/injection, schedule: Q04DX003 (ip), vehicle: carboxymethylcellulose (CMC) 100 % of control | dose: 202.5 mg/kg/injection, schedule: Q01DX Z (ip), vehicle: saline 117 % of control | [6] 116 % of control | dose: 450.0 mg/kg/injection, schedule: Q01DX Z (ip), vehicle: saline 108 % of control | dose: 675.0 mg/kg/injection, schedule: Q01DX Z (ip), vehicle: saline 90 % of control
